# Data as given in patent publication US12606543B2, “Indole derivatives as serotonergic agents useful for the treatment of disorders related thereto” (priority 2023, dated 2026).
# Where two headings read alike, the source gives them in different places.
# Tests used:
# Type in all cases: cell-based
# human 5-HT1A receptor = target: T1, human 5-HT1A receptor (Homo sapiens, UniProt P08908); assay: Human 5-HT1A cAMP assay; conditions: for Emax (% of serotonin): cAMP assay, CHO-K1 cells, relative to maximum response of serotonin
# T1 construct: expressed in transfected cells; host or cells: CHO-K1
# T1 sequence (P08908 1-422): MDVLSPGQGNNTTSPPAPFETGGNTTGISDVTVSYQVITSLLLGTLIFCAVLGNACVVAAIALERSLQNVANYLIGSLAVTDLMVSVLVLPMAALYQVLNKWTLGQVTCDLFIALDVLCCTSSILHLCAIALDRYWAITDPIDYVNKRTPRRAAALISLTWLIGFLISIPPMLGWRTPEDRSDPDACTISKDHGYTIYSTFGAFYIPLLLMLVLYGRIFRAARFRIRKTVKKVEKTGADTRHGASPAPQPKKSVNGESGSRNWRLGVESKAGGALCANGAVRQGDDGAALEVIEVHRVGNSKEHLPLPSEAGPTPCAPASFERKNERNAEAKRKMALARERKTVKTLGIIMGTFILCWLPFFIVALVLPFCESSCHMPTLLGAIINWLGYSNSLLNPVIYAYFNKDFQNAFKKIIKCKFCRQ
# Protocol: Compound potency (EC50) and efficacy (Max response) against the human 5-HT1A receptor in stably transfected CHO-K1 cells were determined in a GPCR cell-based CAMP assay.
# Cells were seeded in a total volume of 20 μL into white walled, 384-well microplates and incubated at 37° C. overnight before analysis. Prior to testing, cell plating media was exchanged with 10 μL of Assay buffer (HBSS+10 mM HEPES). Briefly, intermediate dilution of sample stocks were performed to generate 4× sample in assay buffer. 5 μL of 4× samples+5 μL of 4× forskolin were added to cells and incubated at 37° C. for 30 minutes (mins). The final assay vehicle concentration was 1%.
# Cells were seeded in a total volume of 20 μL into white walled, 384-well microplates and incubated at 37° C. overnight before analysis. Prior to testing, cell plating media was exchanged with 10 μL of Assay buffer (HBSS+10 mM HEPES). Briefly, intermediate dilution of sample stocks was performed to generate 4× samples in assay buffer. 5 μL of 4× samples+5 μL of 4× forskolin was added to cells and incubated at 37° C. for 30 mins. The final assay vehicle concentration was 1%.
# [1] = target: T2, human 5-hydroxytryptamine receptor 1A (5-HT1A) (Homo sapiens, UniProt P08908); assay: Human 5-HT1A functional FLIPR assay (agonist mode); parameters: expressed in transfected cells; host or cells: Flp-In CHO; conditions: for RFU@10 μM: normalized fluorescence reading (Fmax−Fmin) at 10 μM, curve fitting with activation (%)
# T2 sequence (P08908 1-422): T1 sequence (P08908 1-422)
# Protocol: The potential excitatory effects of compounds targeting on 5-hydroxytryptamine receptor 1A (5-HT1A) under agonist mode was assessed.
# HTR1A&Gα15-CHO cells were cultured in DMEM/F12 medium containing 10% dialyzed FBS, 1× penicillin-streptomycin and 600 μg/mL Hygromycin B. The cells were passaged about three times a week, maintained between ˜30% to ˜90% confluence.
# 8. Cells were diluted to 4×10^5/mL with cell culture medium.
# 9. 30 μL/well cell suspensions were added into a 384-well cell plate (The cell density was 12,000 cells/well).
# (§1) 2. 10 μL of assay buffer (20 mM HEPES, in 1×HBSS, pH 7.4) was added to each well of the cell plate.
# 3. 2× dye solution was prepared following the manufacture's instruction of the FLIPR® Calcium 6 assay kit: • i. The dye was diluted with assay buffer. • ii. probenecid was added to the final concentration of 5 mM. • iii. Vortexed vigorously for 1-2 minutes, adjust pH to 7.4.
# 4. 10 μL of 2× dye solution was added to each well of the cell plate.
# (§2) 6. The plate was incubated at 37° C. for 2 hours followed by an additional 15-minute incubation at 25° C.
# 1. Serotonin was prepared to the concentration of 10 mM with DMSO, 3-folds serial dilutions were performed with DMSO.
# 2. Prepare the test compound to the concentration of 10 mM with DMSO, preform 3-folds serial dilutions with DMSO.
# 4. 90 nL/well of serial diluted compounds were transferred from source plate to a 384-well compound plate by using an Echo.
# 5. 30 μL/well of assay buffer was added to the compound plate.
# 2. 10 μL of 3× compounds were transferred from the compound plate to the cell plate by FLIPR.
# 3. The plate was read for 160 sec with 1 sec interval to obtain the data of agonist mode.
# (§3) 1. The normalized fluorescence reading (RFU) was calculated as shown below, wherein Fmax and Fmin stand for maximum and minimum of calcium signal during defined time window:
# 2. EC50 was calculated by fitting RFU against log of compound concentrations with Hill equation using XLfit.
# [2] = target: human 5-hydroxytryptamine receptor 2A (5-HT2A) (Homo sapiens, UniProt P28223); assay: Human 5-HT2A functional FLIPR assay (agonist mode); parameters: expressed in transfected cells; host or cells: Flp-In-293 (HEK293); conditions: for RFU@10 μM: normalized fluorescence reading (Fmax−Fmin) at 10 μM, curve fitting with activation (%)
# Protocol: The potential excitatory effects of compounds targeting human 5-hydroxytryptamine receptor 2A (5-HT2A) under agonist mode was assessed.
# HTR2A&Gα15-HEK293 cells were cultured in DMEM medium containing 10% dialyzed FBS and 1× penicillin-streptomycin, 100 μg/mL Hygromycin B and 300 μg/mL G418. The cells were passaged about three times a week, maintained between ˜30% to ˜90% confluence.
# 2. For induction, 1 μg/ml tetracycline (final concentration) was added to cell culture medium and incubated for 48 hours prior to seeding cells into plate at 37° C., 5% (v/v) CO2. The cell culture medium was removed from flask. Cells were washed with DP BS.
# 9. 30 μL/well cell suspensions added into a 384-well cell plate (The cell density was 20,000 cells/well).
# 10 μL of assay buffer (20 mM HEPES, in 1×HBSS, pH 7.4) was added to each well of the cell plate.
# 2× dye solution was prepared following the manual of the FLIPR® Calcium 6 Assay Kit: • i. The dye was diluted with assay buffer. • ii. Probenecid was added to the final concentration of 5 mM. • iii. Vortexed vigorously for 1-2 minutes.
# 4. 10 μL of 2× dye solution was added to each well of the cell plate
# as §2
# 1. Serotonin HCl was prepared to the concentration of 10 mM with DMSO.
# 2. The test compounds were prepared to the concentration of 10 mM with DMSO.
# 4. 3-folds serial dilutions were performed with DMSO.
# 5. 90 nL/well of serial diluted compounds was transferred from source plate to a 384-well compound plate by using an Echo.
# 6. 30 μL/well of assay buffer (20 mM HEPES in 1×HBSS, pH 7.4) was added to the compound plate.
# 2. 10 μL of 3× compounds transferred from the compound plate to the cell plate by FLIPR.
# 3. The plate was read for 160 sec with 1 sec interval and the data of agonist mode was obtained.
# as §3
# 2. EC50 by fitting RFU against log of compound concentrations with Hill equation was calculated using XLfit.
# as §1
# 3. 2× dye solution was prepared following the manual of the FLIPR® Calcium 6 Assay Kit: • i. The dye was diluted with assay buffer. • ii. Probenecid was added to the final concentration of 5 mM. • iii. Vortexed vigorously for 1-2 minutes.
# 1. The normalized fluorescence reading (RFU) was calculated as shown below, wherein Fmax and Fmin stand for maximum and minimum of calcium signal during defined time window: RFU=Fmax−Fmin
# [3] = cAMP assay with forskolin, stably transfected CHO-K1 cells, 30 min, read-out: EC50
# Sequence of human 5-hydroxytryptamine receptor 2A (5-HT2A) (P28223 whole entry): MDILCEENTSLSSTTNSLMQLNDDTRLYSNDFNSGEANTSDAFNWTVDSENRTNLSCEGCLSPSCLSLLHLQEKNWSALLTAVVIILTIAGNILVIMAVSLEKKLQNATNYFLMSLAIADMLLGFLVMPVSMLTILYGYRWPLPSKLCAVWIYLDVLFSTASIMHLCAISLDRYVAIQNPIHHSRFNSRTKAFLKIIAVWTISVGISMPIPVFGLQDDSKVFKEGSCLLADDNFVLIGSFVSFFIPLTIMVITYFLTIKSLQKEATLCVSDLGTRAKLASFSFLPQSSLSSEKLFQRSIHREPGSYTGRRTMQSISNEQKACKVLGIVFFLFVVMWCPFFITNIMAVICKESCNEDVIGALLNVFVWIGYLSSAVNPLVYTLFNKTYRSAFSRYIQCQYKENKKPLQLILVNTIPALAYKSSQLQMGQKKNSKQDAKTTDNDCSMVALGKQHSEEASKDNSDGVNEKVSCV
SMILES,EC50 (human 5-HT1A receptor; [3]),Emax (% of serotonin) (human 5-HT1A receptor),RFU@10 μM [1],EC50 [2],RFU@10 μM [2],EC50 (human 5-HT1A receptor),EC50 [1],"EC50 ([2]; FLIPR calcium, agonist mode, HTR2A&Gα15-HEK293 cells, read-out: h5-HT2A, EC50)"
"[2H]C([2H])(c1c[nH]c2ccc(OCCCCCN3C(=O)[C@H]4CCCC[C@H]4C3=O)cc12)[C@H]1CCCN1C([2H])([2H])[2H] [Cis (R) I-248, 2-(5-((3-(((R)-1-(Methyl-d3)pyrrolidin-2-yl)methyl-d2)-1H-indol-5-yl)oxy)pentyl)hexahydro-1H-isoindole-1,3(2H)-dione]",52.7 nM,96.76 % of serotonin,–,–,–,–,–,–
"[2H]C([2H])(c1c[nH]c2ccc(OCCCCN3C(=O)c4ccccc4C3=O)cc12)[C@H]1CCCN1C([2H])([2H])[2H] [(R) I-244, (R)-2-(4-((3-((1-(Methyl-d3)pyrrolidin-2-yl)methyl-d2)-1H-indol-5-yl)oxy)butyl)isoindoline-1,3-dione]",6.3 nM,99.01 % of serotonin,616 RFU,50 nM,"7,945 RFU",–,–,–
"CSc1ccc2[nH]cc(C[C@H]3CCCN3C)c2c1 [(R) I-1, (R)-3-((1-Methylpyrrolidin-2-yl)methyl)-5-(methylthio)-1H-indole]",–,99.41 % of serotonin,"3,355 RFU",47 nM,"5,663 RFU",11.1 nM,581 nM,–
CN(C)CCc1c[nH]c2ccccc12 [DMT],–,87.1 % of serotonin,204 RFU,–,"3,493 RFU",–,–,163 nM
"[2H]C([2H])(c1c[nH]c2ccc(OCCCCCN3C(=O)c4ccccc4C3=O)cc12)[C@H]1CCCN1C([2H])([2H])[2H] [(R) I-245, (R)-2-(5-((3-((1-(Methyl-d3)pyrrolidin-2-yl)methyl-d2)-1H-indol-5-yl)oxy)pentyl)isoindoline-1,3-dione]",19.5 nM,99.14 % of serotonin,899 RFU,120 nM,"8,322 RFU",–,–,–
[2H]C([2H])(c1c[nH]c2ccc(OCCCCCN3C(=O)C4CCCCC4C3=O)cc12)[C@H]1CCCN1C([2H])([2H])[2H] (mixture of isomers) [Rac (R) I-248],–,–,601 RFU,54 nM,"8,240 RFU",–,–,–
"COCCN1CCC[C@@H]1Cc1c[nH]c2ccc(OC)cc12 [(R) I-98, (R)-5-Methoxy-3-((1-(2-methoxyethyl)pyrrolidin-2-yl)methyl)-1H-indole]",40.3 nM,96.42 % of serotonin,"1,666 RFU",13 nM,"8,298 RFU",–,3170 nM,–
